Data set [1] concerns human airway epithelial cells (HAECs). Briefly: High-throughput sequencing (HTS) of miRNAs at four stages of differentiation of HAECs. The settings on record: for Modulation (ratio of the level of intensity of expression in log2 in two stages of differentiation) measured by high-throughput sequencing, D7 − D0 / Modulation (ratio of the level of intensity of expression in log2 in two stages of differentiation) measured by high-throughput sequencing, FC − D7 / Modulation (ratio of the level of intensity of expression in log2 in two stages of differentiation) measured by high-throughput sequencing, WD − D0 / Modulation (ratio of the level of intensity of expression in log2 in two stages of differentiation) measured by high-throughput sequencing, WD − FC / Level of intensity of expression in log2 measured by high-throughput sequencing, D0 / Level of intensity of expression in log2 measured by high-throughput sequencing, D7 / Level of intensity of expression in log2 measured by high-throughput sequencing, FC / Level of intensity of expression in log2 measured by high-throughput sequencing, WD: Table VI; for Level of intensity of expression in log2 At the differentiated stage (WD) measured in HTS: healthy human airway epithelial tissue; for Level of intensity of expression in log2 measured by high-throughput sequencing, D0: stage D0; for Level of intensity of expression in log2 measured by high-throughput sequencing, D7: stage D7; for Level of intensity of expression in log2 measured by high-throughput sequencing, FC: stage FC; for Level of intensity of expression in log2 At the differentiated stage (WD) measured in HTS / Level of intensity of expression in log2 measured by high-throughput sequencing, WD: stage WD. In a few lines: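 ALI cultures sampled at day 0, day 7, first-cilia stage (~14 d) and full differentiation (~21 d). Trizol lysis, column purification retaining small RNAs. Adaptor ligation, RT at 42° C for 30 min, PCR, gel selection of ~105-150 base products.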

Data set [2] has the same test system. The data set is described as follows: Agilent miRNA chips, miRNA expression at four stages of differentiation of HAECs. Particulars: for Modulation (ratio of the level of intensity of expression in log2 in two stages of differentiation) measured with the Agilent chips, D7 − D0 / Modulation (ratio of the level of intensity of expression in log2 in two stages of differentiation) measured with the Agilent chips, FC − D7 / Modulation (ratio of the level of intensity of expression in log2 in two stages of differentiation) measured with the Agilent chips, WD − D0 / Modulation (ratio of the level of intensity of expression in log2 in two stages of differentiation) measured with the Agilent chips, WD − FC / Level of intensity of expression in log2 measured with the Agilent chips, D0 / Level of intensity of expression in log2 measured with the Agilent chips, D7 / Level of intensity of expression in log2 measured with the Agilent chips, FC / Level of intensity of expression in log2 measured with the Agilent chips, WD: Table VI; for Level of intensity of expression in log2 measured with the Agilent chips, D0: stage D0; for Level of intensity of expression in log2 measured with the Agilent chips, D7: stage D7; for Level of intensity of expression in log2 measured with the Agilent chips, FC: stage FC; for Level of intensity of expression in log2 measured with the Agilent chips, WD: stage WD; for Modulation (ratio of the level of intensity of expression in log2 at two stages of differentiation), FC − D7 / Modulation (ratio of the level of intensity of expression in log2 at two stages of differentiation), WD − FC: Agilent miRNA chips, Table V. In a few lines:
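To benchmark sequencing, the microRNAome was also profiled by hybridizing labelled RNA from identical patient samples to v2 arrays with miRBase v.12.0 human content (866 miRNAs) and 89 viral miRNAs.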

Data set [3] deals with basal cells and pyramidal cells of the airway epithelium. The data set is described as follows: miRNA expression in sorted basal cells versus pyramidal cells (ciliated + secretory), HTS and Agilent chips. The settings on record: for Modulation of expression of the miRNAs in pyramidal cells (323(−)) relative to basal cells 323(+): HTS and Agilent chips; for Intensity of the level of expression in log2 in pyramidal cells (323(−)): pyramidal cells (ciliated + secretory). More on the design: species or system human. In a few lines: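 FACS on CD151 and tissue factor: double-positive = basal, double-negative = ciliated + mucus cells; DAPI, doublets, aggregates excluded; sort at 5000 events/s. Purity checked by cytometry/immunocytochemistry. miRNA by Agilent array or HTS on total RNA. Source: nasal polyps/conchae, 3 donors.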

Consider “hsa-miR-378: human miRNA, SEQ ID No. 43 (ACUGGACUUGGAGUCAGAAGG; expressed or natural sequence; listed as Homo sapiens)”, for which, in data set [1], the “Modulation (ratio of the level of intensity of expression in log2 in two stages of differentiation) measured by high-throughput sequencing, D7 − D0” value came out at 2.15 log2; the “Modulation (ratio of the level of intensity of expression in log2 in two stages of differentiation) measured by high-throughput sequencing, FC − D7” value was −0.26 log2; the “Modulation (ratio of the level of intensity of expression in log2 in two stages of differentiation) measured by high-throughput sequencing, WD − D0” value came to 1.50 log2; the “Modulation (ratio of the level of intensity of expression in log2 in two stages of differentiation) measured by high-throughput sequencing, WD − FC” value is given as −0.39 log2. Further, in data set [1], the “Level of intensity of expression in log2 At the differentiated stage (WD) measured in HTS” value is listed as 11.70 log2; the “Level of intensity of expression in log2 measured by high-throughput sequencing, D0” value amounted to 10.37 log2; the “Level of intensity of expression in log2 measured by high-throughput sequencing, D7” value stood at 12.53 log2; the “Level of intensity of expression in log2 measured by high-throughput sequencing, FC” value was 12.26 log2. Besides, the “Level of intensity of expression in log2 measured by high-throughput sequencing, WD” value in data set [1] came out at 11.87 log2. Moreover, in data set [1] (HTS), the “Modulation (ratio of the level of intensity of expression in log2 in two stages of differentiation), D7 − D0” value is given as 2.15 log2; the “Modulation (ratio of the level of intensity of expression in log2 in two stages of differentiation), FC − D7” value was −0.26 log2; the “Modulation (ratio of the level of intensity of expression in log2 in two stages of differentiation), WD − FC” value was −0.39 log2. Moreover, the “Abundance (%), D0” value in data set [1] (HTS, ALI-D0) turned out to be 0.29%. In data set [1] (HTS, ALI-D7), the “Abundance (%), D7” value is 1.30%. For the same substance, the “Abundance (%), FC” value in data set [1] (HTS, ALI-FC) was 1.04%. Further, in data set [1] (HTS, ALI-WD), the “Abundance (%), WD” value is 0.61%. Moreover, in data set [2], the “Modulation (ratio of the level of intensity of expression in log2 in two stages of differentiation) measured with the Agilent chips, D7 − D0” value stood at 3.23 log2; the “Modulation (ratio of the level of intensity of expression in log2 in two stages of differentiation) measured with the Agilent chips, FC − D7” value is listed as −0.81 log2; the “Modulation (ratio of the level of intensity of expression in log2 in two stages of differentiation) measured with the Agilent chips, WD − D0” value came to 2.16 log2; the “Modulation (ratio of the level of intensity of expression in log2 in two stages of differentiation) measured with the Agilent chips, WD − FC” value is reported as −0.26 log2. In addition, in data set [2], the “Level of intensity of expression in log2 measured with the Agilent chips, D0” value is reported as 4.38 log2; the “Level of intensity of expression in log2 measured with the Agilent chips, D7” value is reported as 7.61 log2; the “Level of intensity of expression in log2 measured with the Agilent chips, FC” value was 6.80 log2; the “Level of intensity of expression in log2 measured with the Agilent chips, WD” value was 6.54 log2. For the same substance, in data set [3], the “Modulation of expression of the miRNAs in pyramidal cells (323(−)) relative to basal cells 323(+)” value is on record as −2.43, the “Intensity of the level of expression in log2 in basal cells (323(+))” value (“Intensity … in log2 in basal cells (323(+))” below) is 4.11 log2 and the “Intensity of the level of expression in log2 in pyramidal cells (323(−))” value (“Intensity … in log2 in pyramidal cells (323(−))” for short) is 1.68 log2.
With “hsa-miR-16: human miRNA, SEQ ID No. 10 (UAGCAGCACGUAAAUAUUGGCG; expressed or natural sequence; listed as Homo sapiens)”, in data set [1], the “Modulation (ratio of the level of intensity of expression in log2 in two stages of differentiation) measured by high-throughput sequencing, D7 − D0” value amounted to 2.01 log2; the “Modulation (ratio of the level of intensity of expression in log2 in two stages of differentiation) measured by high-throughput sequencing, FC − D7” value was −1.17 log2; the “Modulation (ratio of the level of intensity of expression in log2 in two stages of differentiation) measured by high-throughput sequencing, WD − D0” value worked out at 2.22 log2; the “Modulation (ratio of the level of intensity of expression in log2 in two stages of differentiation) measured by high-throughput sequencing, WD − FC” value is given as 1.38 log2. In data set [1], the “Level of intensity of expression in log2 At the differentiated stage (WD) measured in HTS” value turned out to be 5.35 log2; the “Level of intensity of expression in log2 measured by high-throughput sequencing, D0” value was determined as 3.13 log2; the “Level of intensity of expression in log2 measured by high-throughput sequencing, D7” value came out at 5.14 log2; the “Level of intensity of expression in log2 measured by high-throughput sequencing, FC” value was determined as 3.97 log2. Besides, the “Level of intensity of expression in log2 measured by high-throughput sequencing, WD” value in data set [1] is given as 5.35 log2. Moreover, in data set [2], the “Modulation (ratio of the level of intensity of expression in log2 in two stages of differentiation) measured with the Agilent chips, D7 − D0” value was found to be 2.07 log2; the “Modulation (ratio of the level of intensity of expression in log2 at two stages of differentiation), FC − D7” value was −0.36 log2; the “Modulation (ratio of the level of intensity of expression in log2 in two stages of differentiation) measured with the Agilent chips, FC − D7” value is listed as −0.36 log2; the “Modulation (ratio of the level of intensity of expression in log2 in two stages of differentiation) measured with the Agilent chips, WD − D0” value is 1.59 log2. For the same substance, in data set [2], the “Modulation (ratio of the level of intensity of expression in log2 at two stages of differentiation), WD − FC” value is on record as −0.11 log2; the “Modulation (ratio of the level of intensity of expression in log2 in two stages of differentiation) measured with the Agilent chips, WD − FC” value was −0.11 log2; the “Level of intensity of expression in log2 measured with the Agilent chips, D0” value is given as 9.47 log2; the “Level of intensity of expression in log2 measured with the Agilent chips, D7” value is 11.54 log2. Also, in data set [2], the “Level of intensity of expression in log2 measured with the Agilent chips, FC” value is 11.18 log2 and the “Level of intensity of expression in log2 measured with the Agilent chips, WD” value came out at 11.06 log2. In data set [3], the “Modulation of expression of the miRNAs in pyramidal cells (323(−)) relative to basal cells 323(+)” value is listed as −0.48, the “Intensity … in log2 in basal cells (323(+))” value is 9.10 log2 and the “Intensity … in log2 in pyramidal cells (323(−))” value was 8.62 log2.
For “hsa-let-7c: human miRNA, SEQ ID No. 159 (UGAGGUAGUAGGUUGUAUGGUU; expressed or natural sequence; listed as Homo sapiens)”, in data set [1], the “Modulation (ratio of the level of intensity of expression in log2 in two stages of differentiation) measured by high-throughput sequencing, D7 − D0” value is recorded as 0.14 log2; the “Modulation (ratio of the level of intensity of expression in log2 in two stages of differentiation) measured by high-throughput sequencing, FC − D7” value is on record as 0.21 log2; the “Modulation (ratio of the level of intensity of expression in log2 in two stages of differentiation) measured by high-throughput sequencing, WD − D0” value was found to be 0.90 log2; the “Modulation (ratio of the level of intensity of expression in log2 in two stages of differentiation) measured by high-throughput sequencing, WD − FC” value amounted to 0.55 log2. Further, in data set [1], the “Level of intensity of expression in log2 At the differentiated stage (WD) measured in HTS” value was 7.86 log2; the “Level of intensity of expression in log2 measured by high-throughput sequencing, D0” value was 6.96 log2; the “Level of intensity of expression in log2 measured by high-throughput sequencing, D7” value turned out to be 7.10 log2; the “Level of intensity of expression in log2 measured by high-throughput sequencing, FC” value was determined as 7.31 log2. Also, the “Level of intensity of expression in log2 measured by high-throughput sequencing, WD” value in data set [1] is 7.86 log2. In data set [2], the “Modulation (ratio of the level of intensity of expression in log2 in two stages of differentiation) measured with the Agilent chips, D7 − D0” value is given as 1.61 log2; the “Modulation (ratio of the level of intensity of expression in log2 at two stages of differentiation), FC − D7” value is on record as −0.71 log2; the “Modulation (ratio of the level of intensity of expression in log2 in two stages of differentiation) measured with the Agilent chips, FC − D7” value is listed as −0.71 log2; the “Modulation (ratio of the level of intensity of expression in log2 in two stages of differentiation) measured with the Agilent chips, WD − D0” value was 1.05 log2. In data set [2], the “Modulation (ratio of the level of intensity of expression in log2 at two stages of differentiation), WD − FC” value came to 0.14 log2; the “Modulation (ratio of the level of intensity of expression in log2 in two stages of differentiation) measured with the Agilent chips, WD − FC” value is 0.14 log2; the “Level of intensity of expression in log2 measured with the Agilent chips, D0” value is on record as 9.10 log2; the “Level of intensity of expression in log2 measured with the Agilent chips, D7” value came to 10.71 log2. In addition, in data set [2], the “Level of intensity of expression in log2 measured with the Agilent chips, FC” value turned out to be 10.00 log2 and the “Level of intensity of expression in log2 measured with the Agilent chips, WD” value is recorded as 10.15 log2. In data set [3], the “Modulation of expression of the miRNAs in pyramidal cells (323(−)) relative to basal cells 323(+)” value is given as −0.48, the “Intensity … in log2 in basal cells (323(+))” value stood at 9.43 log2 and the “Intensity … in log2 in pyramidal cells (323(−))” value is on record as 8.95 log2.

Values taken from patent US9023821B2, “Use of MicroRNA for treating diseases associated with a dysfunction of the cilia in multiciliated epithelial cells” (Centre National de la Recherche Scientifique, priority 2009, dated 2015).
